For series [1] the following is noted: phase III, amyotrophic lateral sclerosis, daily subcutaneous administration; cited from earlier work.
The test system of series [2] is E18 primary hippocampal neurons. In words: Western blots of neuronal markers, densitometry. The format is cell-based, mouse. Conditions: 5 days. The procedure:
(§1) Following treatment in 6-well plates, cells were washed 2× in glucose buffered saline, GBS (5.4 mM KCl, 138 mM NaCl, 22 mM glucose, and 2 mM Na—KPO pH 7.2), and then lysed by 5 min incubation on ice in 100 or 150 μl of ice-cold RIPA buffer (PBS, 1% w/v NP-40 from Fisher Scientific, 0.1% w/v SDS, and 0.5% w/v sodium desoxycholate) containing 1 mM AEBSF (Gold Biotechnology, St. Louis, Mo., USA), 10 μg/ml aprotinin (Sigma-Aldrich, St. Louis, Mo., USA), and 20 μg/ml of leupeptin and pepstatin (US Biochemicals, Cleveland, Ohio, USA), and phosphatase inhibitors: NaF, Na orthovanadate, (3-glycerophosphate, and microcystein (Sigma-Aldrich, St. Louis, Mo., USA). Extracts were prepared by collecting and pooling a minimum of 2 wells by scraping, and lysates were centrifuged at 20,000×g for 10 min at 4° C. Protein concentration of each cell lysate was determined using the BCA kit (Thermo Scientific, Rockford, Ill., USA). The lysates (7.5-20 μg total protein) were separated on 10% SDS-PAGE gels (except for BDNF where 12% gels were employed) and transferred to 0.45 μm PVDF membrane (Pall, Pensacola, Fla., USA) for probing with antibodies as noted. Blots were blocked for 1 hr at 37° C. in 1×TBST (0.05% Tween 20 in TBS) containing 5% w/v blotting grade dry milk (Bio-rad, Hercules, Calif., USA), incubated in primary antibody overnight in blocking buffer at 4° C., washed 3×10 min in TBST at room temperature, followed by incubation with secondary antibody, i.e., peroxidase-conjugated anti-mouse or anti rabbit IgG (Jackson ImmunoResearch Laboratories, West Grove, Pa., USA) diluted in blocking buffer. Blots were washed 3×10 min in TBST and immunoreactive protein bands were visualized with enhanced chemiluminescence (ECL) reagents (Pierce, Rockford, Ill., USA). The ECL films of the blots were scanned and analyzed using Multi Gauge software version 3.0 (Fujifilm, Tokyo, Japan).
(§2) The following primary antibodies were used: rabbit polyclonal anti-NFM (1:1000; Chemicon/Millipore, Billerica, Mass., USA); mouse monoclonal anti-NeuN, clone A60 (1:500; Millipore, Billerica, Mass., USA); rabbit polyclonal anti-Tuj-1, (3—III-tubulin (Covance; 1:800, Emeryville, Calif., USA); mouse monoclonal SMI 52 to the adult isoforms of MAP-2, MAP2a,b (1:1000; Covance, Emeryvilly, Calif., USA); rabbit polyclonal anti-Synapsin I (1:2000; Stressgen, Farmingdale, N.Y., USA); rabbit monoclonal anti-PSD95 (1:1000; Cell signaling, Danvers, Mass., USA); anti tau 92e (1:10000); mouse monoclonal anti-BDNF (1:1000; Calbiochem, Gibbstown, N.J., USA); rabbit polyclonal anti-TrkB (total) (1:500; Santa Cruz Biotechnology, Santa Cruz, Calif., USA); rabbit polyclonal anti-pTrkB (Tyr706) (1:400; Santa Cruz Biotechnology, Santa Cruz, Calif., USA), TrkC (1:1000; Cruz Biotechnology, Santa Cruz, Calif., USA); and pTrkY490 (1:500; Upstate USA Inc., Charlottesville, Va., USA). For loading control, the blots were developed with rabbit polyclonal antibody to GAPDH (1:2000; Santa Cruz Biotechnology, Santa Cruz, Calif., USA).
To biochemically study the effect of BDNF peptides in inducing expression of neuronal markers, protein samples were recovered from cells treated with peptides B-5, B-4, B-3, or vehicle for five days. As a positive control, protein samples were collected from cells treated with BDNF at 20 ng/ml (0.79 nM) or 100 ng/ml (3.95 nM) (FIG. 3D, E). Western blots of the cell lysates were developed with antibodies to Synapsin I (presynaptic marker), PSD95 (postsynaptic marker), NeuN (late neuronal marker), NFM (early neuronal marker), MAP2 (dendritic marker), 0-IIItubulin (early neuronal marker), and tau 92e (axonal marker).

In series [3] the test system is primary E18 hippocampal cells. In words: Rescue of H2O2-induced neurotoxicity (LDH assay). Type of series: cell-based, mouse. Conditions: then treatment 24 h. The procedure: Evaluation of cell death and cell viability was performed using the LDH kit (Promega, Madison Wis., USA), following manufactures instructions. Percentages of cell death and cell viability were plotted separately.
In order to evaluate the potential neuroprotective effect of BDNF peptides, the primary E18 hippocampal cells were challenged with 0, 60, 80 and 100 μM H2O2 for 6 hours, and then cells were washed with culture medium and fresh culture medium was added containing the peptides B-5 or B-3 or BDNF or BDNF plus B-3 (see FIGS. 4A and 4B). After 24 hours, the cell viability was assayed by the LDH method.

For a further series, the target named is T1, TrkC (Homo sapiens, UniProt Q16288).
T1 construct: expressed in transfected cells; host or cells: NIH-3T3 fibroblasts
In words: Trk phosphorylation and TrkC expression in TrkC stably-expressing NIH-3T3 cells. The format is cell-based. Conditions: 20 ng/mL.

The conditions of series [4]: in vivo; cited from earlier work.
For series [5] the following is noted: direct administration into the CNS; cited from earlier work.
The target in a further series is T2, TrkB receptor (Mus musculus, UniProt P15209).
T2 construct: endogenous in cells; host or cells: primary hippocampal neurons from embryonic day 18 C57BL/6 mice
The series can be described thus: TrkB phosphorylation (Tyr 706) and TrkB level in primary E18 hippocampal cells, with or without K252a. The format is cell-based. Particulars: 20 ng/ml. How it is done: Peptides were dissolved in water in serial dilutions of 10 mM, 1 mM, 100 μM and 10 μM from which the necessary amount was added directly to the culture medium to a final concentration of 0.05 μM, 1 μM, or 10 μM. The BDNF (Peprotech, NJ, USA) was used as a reference in concentrations of 20 ng/ml (0.79 nM) and 100 ng/ml (3.95 nM). Cycloheximide (CHX) (Sigma-Aldrich, St Louis, Mo., USA) was used for blocking protein synthesis. CHX original stock was 100 mg/ml (355.4 mM) in DMSO; from a second stock of 35.54 mM in DMSO, the dilutions were made to the final concentrations of 100 μM. The K252a (CALBIOCHEM/EMD) was used to inhibit the TrkB Receptor. From a stock of 100 μM in DMSO, K252a was diluted to a final working concentration of 200 nM. The E18 primary hippocampal cells were pre-treated with CHX or K252a 1 h prior to the addition of the peptides or BDNF and a time course of these treatments for 15 min, 60 min and 2 days was studied.
as §1
as §2, with “Calif., USA). […]” for “Calif., USA).”

T2 sequence (P15209 32-821): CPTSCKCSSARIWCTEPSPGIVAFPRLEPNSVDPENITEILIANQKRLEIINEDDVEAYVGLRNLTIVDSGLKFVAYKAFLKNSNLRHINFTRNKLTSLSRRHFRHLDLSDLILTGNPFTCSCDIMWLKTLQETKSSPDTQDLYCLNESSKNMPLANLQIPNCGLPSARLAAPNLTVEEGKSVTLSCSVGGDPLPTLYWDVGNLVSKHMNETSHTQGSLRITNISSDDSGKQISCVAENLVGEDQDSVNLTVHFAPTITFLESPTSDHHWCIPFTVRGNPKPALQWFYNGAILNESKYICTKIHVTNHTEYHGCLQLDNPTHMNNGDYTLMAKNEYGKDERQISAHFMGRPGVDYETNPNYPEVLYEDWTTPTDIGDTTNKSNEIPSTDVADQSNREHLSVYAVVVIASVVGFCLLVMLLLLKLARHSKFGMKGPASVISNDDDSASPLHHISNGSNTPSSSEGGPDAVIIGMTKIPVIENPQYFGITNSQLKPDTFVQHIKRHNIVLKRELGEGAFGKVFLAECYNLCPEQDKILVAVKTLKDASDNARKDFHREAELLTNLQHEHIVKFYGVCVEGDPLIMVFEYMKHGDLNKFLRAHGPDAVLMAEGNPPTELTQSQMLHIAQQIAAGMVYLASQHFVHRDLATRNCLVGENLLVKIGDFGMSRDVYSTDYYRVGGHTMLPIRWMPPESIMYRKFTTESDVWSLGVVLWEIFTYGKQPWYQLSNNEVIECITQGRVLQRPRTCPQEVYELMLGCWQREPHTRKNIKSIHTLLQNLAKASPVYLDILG
T1 sequence (Q16288 32-839, species assumed): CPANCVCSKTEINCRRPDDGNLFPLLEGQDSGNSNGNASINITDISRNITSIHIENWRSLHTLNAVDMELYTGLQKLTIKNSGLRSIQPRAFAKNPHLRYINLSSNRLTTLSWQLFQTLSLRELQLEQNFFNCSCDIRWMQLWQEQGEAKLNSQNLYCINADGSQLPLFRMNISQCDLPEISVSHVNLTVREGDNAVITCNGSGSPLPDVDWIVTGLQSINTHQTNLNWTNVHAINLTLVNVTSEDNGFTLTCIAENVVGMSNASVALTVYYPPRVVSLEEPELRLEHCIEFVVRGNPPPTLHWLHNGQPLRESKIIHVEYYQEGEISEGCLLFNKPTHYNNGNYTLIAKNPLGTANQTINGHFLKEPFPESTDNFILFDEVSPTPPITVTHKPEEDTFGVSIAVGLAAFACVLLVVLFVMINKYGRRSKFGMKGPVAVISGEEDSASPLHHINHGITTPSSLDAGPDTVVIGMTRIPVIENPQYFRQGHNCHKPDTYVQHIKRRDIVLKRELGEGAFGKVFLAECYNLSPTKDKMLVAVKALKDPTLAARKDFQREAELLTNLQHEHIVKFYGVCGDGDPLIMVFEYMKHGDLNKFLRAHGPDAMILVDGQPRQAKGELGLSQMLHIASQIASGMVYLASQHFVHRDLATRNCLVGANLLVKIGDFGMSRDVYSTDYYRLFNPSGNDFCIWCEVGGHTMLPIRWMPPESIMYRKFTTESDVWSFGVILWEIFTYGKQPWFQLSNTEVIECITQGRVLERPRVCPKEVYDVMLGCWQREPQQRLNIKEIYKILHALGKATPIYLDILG

As for “BDNF: Brain derived neurotrophic factor (Peprotech), used as a reference at 20 ng/ml and 100 ng/ml”, the clinical benefit result in series [1] is on record as “no clinical benefit”. The “NFM expression (Western blot)” value in series [2] (20 ng/ml) and in series [2] (100 ng/ml) was “increased NFM expression in a similar way” in each case. Also, the “expression of PSD95 (Western blot)” value in series [2] (20 ng/ml) and in series [2] (100 ng/ml) was “increase” throughout. Moreover, the “level of tau (92e antibody, Western blot)” value in series [2] was “Neither BNDF nor peptides B-3, B-4 or B-5 had any significant effect”. Further, the “cell death (LDH)” value in series [3] (0 μM H2O2 6 h) is “not statistically significant”; in series [3] (60 μM H2O2 6 h), “some reduction in cell death”; in series [3] (80 μM H2O2 6 h), “not statistically significant”; in series [3] (100 μM H2O2 6 h), “not statistically significant”. The “cell viability (LDH)” value in series [3] (0 μM H2O2 6 h) and in series [3] (60 μM H2O2 6 h) was “increased cell viability significantly” each time.

B1: BDNF: Brain derived neurotrophic factor (Peprotech), used as a reference at 20 ng/ml and 100 ng/ml (protein, UniProt P23560 19-247, looked up)
Neurotrophic factor BDNF …: APMKEANIRGQGGLAYPGVRTHGTLESVNGPKAGSRGLTSLADTFEHVIEELLDEDQKVRPNEENNKDADLYTSRVMLSSQVPLEPPLLFLLEEYKNYLDAANMSMRVRRHSDPARRGELSVCDSISEWVTAADKKTAVDMSGGTVTVLEKVPVSKGQLKQYFYETKCNPMGYTKEGCRGIDKRHWNSQCRTTQSYVRALTMDSKKRIGWRFIRIDTSCVCTLTIKRGR
Consider B1, for which, in the series with TrkC, the “activation of TrkC receptor” value is on record as “neither the peptides nor BDNF were able to activate this receptor”; the “expression of TrkC” value was “neither BDNF (20 ng/mL) nor peptides B-5 (1 μM) and B-3 (1 μM) were able to modify the expression of TrkC”. In series [4], the “blood brain barrier (BBB) and intraparenchymal penetrations” value is given as “poor”; the plasma half-life result is listed as “less than 1 min”. The undesirable effects result in series [5] is “weight loss, dysaesthesias (impairment of sensation), and in some cases, pain”. The “increase in the phosphorylation of the TrkB receptor” value with TrkB receptor (5 min, without K252a) was “significant”. Also, in the series with TrkB receptor (1 h), the “activation of TrkB (pTrkB Tyr 706 normalized to total TrkB)” value was “strong and significant activation”.

The values are drawn from patent US9512178B2, “Neurogenic brain-derived neurotrophic factor peptides” (Research Foundation for Mental Hygiene, Inc., priority 2012, dated 2016).
